We go through 4 compounds from US6852499B2, “Luciferase detection reagent kits and luciferase detection method using the kit” (Toyo Ink Mfg. Co., Ltd., priority 2002, dated 2005).

This test addresses T1, Coleoptera luciferase (Photinus pyralis, UniProt P08659).
T1 construct: purchased Toyo Ink Manufacturing Co., Ltd. PGL100
The experiment in a line: luciferin/luciferase luminescent reaction with an added sulfur reagent, measured on a luminometer. Format: biochemical. The conditions noted are these: for RLU/200 (integrated quantity of light emitted for 200 seconds) / max RLU (maximum quantity of light emitted): 100 ng/mL luciferase; for max RLU (maximum quantity of light emitted): initial 200 seconds; for emission pattern (glow vs flash luminescence): reagent without thiol reagent, 200 seconds. The method, then:
The luciferase used was one included in a commercially available kit (Toyo Ink Manufacturing Co., Ltd.; product No. PGL100).
A “luciferase luminescent reagent” containing 20 mM tricine, 1.07 mM (MgCO3)4Mg(OH)2·5H2O, 2.67 mM magnesium sulfate, 0.1 mM EDTA, 270 μM CoA, 470 μM luciferin and 530 μM adenosine triphosphate (ATP), pH 7.8 was prepared in accordance with the formulation described in the instructions included in “PicaGene Luminescent Kit” (Toyo Ink Manufacturing Co., Ltd.; product No. PGL100), except that 33.3 mM dithiothreitol (DTT) mentioned in the instructions was not added. To the “luciferase luminescent reagent” was added sodium diethyldithiocarbamate at final concentrations of 0 mM, 0.33 mM, 3.3 mM and 33.3 mM.
An enzyme solution containing 100 ng/mL of luciferase was collected in 10 μL in a measurement cuvette of a luminometer (Berthold, LB9506). To the enzyme solution was added 100 μL of each of the “luciferase luminescent reagents” prepared above. Immediately after the addition, the resulting mixed solution was loaded on the luminometer, and the quantity of light emitted was measured for the initial 200 seconds of the reagent addition to determine the maximum quantity of light emitted (RLU/sec) during the period of measurement and the integrated quantity of light emitted for 200 seconds (RLU/200 sec) (Table 2).
(§1) A “luciferase luminescent reagent” containing 20 mM tricine, 1.07 mM (MgCO3)4Mg(OH)2·5H2O, 2.67 mM magnesium sulfate, 0.1 mM EDTA, 270 μM CoA, 470 μM luciferin and 530 μM adenosine triphosphate (ATP), pH 7.8 was prepared in accordance with the formulation described in the instructions included in “PicaGene Luminescent Kit” (Toyo Ink Manufacturing Co., Ltd.; product No. PGL100), except that 33.3 mM dithiothreitol (DTT) mentioned in the instructions was not added.
A “luciferase luminescent reagent” containing 20 mM tricine, 1.07 mM (MgCO3)4Mg(OH)2·5H2O, 2.67 mM magnesium sulfate, 0.1 mM EDTA, 270 μM CoA, 470 μM luciferin and 530 μM adenosine triphosphate (ATP), pH 7.8 was prepared in accordance with the formulation described in the instructions included in “PicaGene Luminescent Kit” (Toyo Ink Manufacturing Co., Ltd.; product No. PGL100), except that 33.3 mM dithiothreitol (DTT) mentioned in the instructions was not added. To the “luciferase luminescent reagent” was added potassium xanthogenate at final concentrations of 0 mM, 0.33 mM 3.3 mM and 33.3 mM.
To the enzyme solution was added 100 μL of each of the “luciferase luminescent reagents” prepared above. Immediately after the addition, the resulting mixed solution was loaded on the luminometer, and the quantity of light emitted was measured for the initial 200 seconds of the reagent addition to determine the maximum quantity of light emitted (RLU/sec) during the period of measurement and the integrated quantity of light emitted for 200 seconds (RLU/200 sec) (Table 2).
A “luciferase luminescent reagent” containing 20 mM tricine, 1.07 mM (MgCO3)4Mg(OH)2·5H2O, 2.67 mM magnesium sulfate, 0.1 mM EDTA, 270 μM CoA, 470 μM luciferin and 530 μM adenosine triphosphate (ATP), pH 7.8 was prepared in accordance with the formulation described in the instructions included in “PicaGene Luminescent Kit” (Toyo Ink Manufacturing Co., Ltd.; product No. PGL100), except that 33.3 mM dithiothreitol (DTT) mentioned in the instructions was not added. To the “luciferase luminescent reagent” was added 2-mercaptobenzothiazole at final concentrations of 0 mM, 0.33 mM 3.3 mM and 33.3 mM.
as §1

Structures are written as SMILES.

T1 sequence (P08659 whole entry): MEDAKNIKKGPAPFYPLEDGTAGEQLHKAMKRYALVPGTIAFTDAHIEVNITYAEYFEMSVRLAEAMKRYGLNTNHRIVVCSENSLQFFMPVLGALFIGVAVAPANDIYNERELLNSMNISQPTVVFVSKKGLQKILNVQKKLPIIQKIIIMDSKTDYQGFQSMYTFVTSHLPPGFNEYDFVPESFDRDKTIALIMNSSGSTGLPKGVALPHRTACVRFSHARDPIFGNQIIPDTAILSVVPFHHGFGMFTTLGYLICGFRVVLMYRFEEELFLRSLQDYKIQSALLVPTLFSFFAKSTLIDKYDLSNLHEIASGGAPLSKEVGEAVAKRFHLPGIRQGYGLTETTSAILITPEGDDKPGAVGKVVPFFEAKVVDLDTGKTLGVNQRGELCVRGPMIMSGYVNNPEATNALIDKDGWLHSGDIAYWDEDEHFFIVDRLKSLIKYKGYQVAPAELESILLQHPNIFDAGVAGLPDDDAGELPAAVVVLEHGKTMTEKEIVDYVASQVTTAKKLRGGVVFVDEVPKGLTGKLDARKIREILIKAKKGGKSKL

Consider `CCN(CC)C(=S)[S-].[Na+]` [Sodium diethyldithiocarbamate, sodium diethyldithiocarbamate], for which the “emission pattern (glow vs flash luminescence)” value is listed as “glow luminescence”. Where the note is “0.33 mM and 3.3 mM”, the “change of the maximum quantity of light emitted (RLU/sec) as compared with the system containing no reagent (0 mM)” value is recorded as “increased only slightly” and the “increase in the integrated quantity of light emitted (RLU/200 sec) as compared with the system containing no reagent (0 mM)” value was “about 1.7 fold”. Besides, under “33.3 mM vs 0.33 mM, 3.3 mM”, the “maximum and integrated quantity of light emitted relative to the systems at lower concentrations” value was “about two-fifths”. For the same compound, under “final concentration 0.33 mM”, the “RLU/200 (integrated quantity of light emitted for 200 seconds)” value was 592,116,224 RLU/200 sec and the “max RLU (maximum quantity of light emitted)” value (from here on “max RLU”) is 3,267,710 RLU/sec. Moreover, under “final concentration 3.3 mM”, the “RLU/200 (integrated quantity of light emitted for 200 seconds)” value is 611,260,800 RLU/200 sec and the “max RLU” value is 3,141,880 RLU/sec. Also, under “final concentration 33.3 mM”, the “RLU/200 (integrated quantity of light emitted for 200 seconds)” value is reported as 246,535,408 RLU/200 sec and the “max RLU” value is reported as 1,261,630 RLU/sec.
In the case of `CCOC(=S)[S-].[K+]` [Potassium xanthogenate, potassium xanthogenate], the “emission pattern (glow vs flash luminescence)” value is reported as “glow luminescence”. In addition, under “0.33 mM”, the “change of the maximum quantity of light emitted (RLU/sec) as compared with the system containing no reagent (0 mM)” value is reported as “increased only slightly” and the “increase in the integrated quantity of light emitted (RLU/200 sec) as compared with the system containing no reagent (0 mM)” value is “about 1.7 fold”. Further, the “maximum and integrated quantity of light emitted relative to the system at a lower concentration” value (33.3 mM vs 0.33 mM) is reported as “about one-thirteenth”. Besides, under “final concentration 0.33 mM”, the “RLU/200 (integrated quantity of light emitted for 200 seconds)” value is recorded as 616,747,200 RLU/200 sec and the “max RLU” value is on record as 3,232,620 RLU/sec. In addition, under “final concentration 3.3 mM”, the “RLU/200 (integrated quantity of light emitted for 200 seconds)” value is reported as 92,549,720 RLU/200 sec and the “max RLU” value is given as 473,070 RLU/sec. In addition, under “final concentration 33.3 mM”, the “RLU/200 (integrated quantity of light emitted for 200 seconds)” value is given as 4,519,292 RLU/200 sec and the “max RLU” value was 24,210 RLU/sec.
With `O[C@H](CS)[C@H](O)CS` (racemic) [DTT, dithiothreitol, reference compound], the “integrated quantity of light emitted (RLU/for 200 sec), dependence on concentration” value (0 to 33.3 mM) was “increased with increasing DTT concentration”. For the setting “0.33 mM and 3.3 mM”, the “change of the maximum quantity of light emitted (RLU/sec) as compared with the system containing no reagent (0 mM)” value is “little difference”. Where the note is “33.3 mM”, the “maximum quantity of light emitted relative to the value for the system without DTT” value came to 1.8 times. Further, the “RLU/200 (integrated quantity of light emitted for 200 seconds)” value is, setting by setting: (final concentration 0.33 mM) 511,723,424 RLU/200 sec; (final concentration 3.3 mM) 579,940,160 RLU/200 sec; (final concentration 33.3 mM) 667,250,048 RLU/200 sec. For the same compound, the “max RLU” value is on record as 3,359,620 RLU/sec (final concentration 0.33 mM), 3,221,070 RLU/sec (final concentration 3.3 mM) and 3,434,180 RLU/sec (final concentration 33.3 mM).
`Sc1nc2ccccc2s1` [2-mercaptobenzothiazole]: the “emission pattern (glow vs flash luminescence)” value is reported as “glow luminescence”. Also, under “0.33 mM and 3.3 mM”, the “change of the maximum quantity of light emitted (RLU/sec) as compared with the system containing no reagent (0 mM)” value is listed as “increased only slightly” and the “increase in the integrated quantity of light emitted (RLU/200 sec) as compared with the system containing no reagent (0 mM)” value is listed as “about 1.7 fold”. Also, under “33.3 mM vs 3.3 mM”, the “maximum and integrated quantity of light emitted relative to the system at a lower concentration” value is given as “nearly two-thirds”. For the setting “final concentration 0.33 mM”, the “RLU/200 (integrated quantity of light emitted for 200 seconds)” value was 492,116,224 RLU/200 sec and the “max RLU” value is given as 3,267,710 RLU/sec. Also, where the note is “final concentration 3.3 mM”, the “RLU/200 (integrated quantity of light emitted for 200 seconds)” value is on record as 622,578,816 RLU/200 sec and the “max RLU” value is reported as 3,410,350 RLU/sec. Besides, where the note is “final concentration 33.3 mM”, the “RLU/200 (integrated quantity of light emitted for 200 seconds)” value is reported as 421,084,568 RLU/200 sec and the “max RLU” value is 2,603,090 RLU/sec.
